Data on eight compounds can be found in patent US8227604B2, “Hybrid 2-aminotetralin and aryl-substituted piperazine compounds and their use in altering CNS activity” (Wayne State University, priority 2001, dated 2012).

The target in assay [1] is T1, D3 receptor (Homo sapiens, UniProt P35462). Briefly: Inhibition constants for binding to cloned D3 receptor expressed in HEK cells, [3H]spiperone. Conditions: D3 expressed in HEK cells. The procedure:
(§1) Inhibition constants for binding to cloned D2L and D3 receptors expressed in HEK cells by displacing [^3H] spiperone were measured for several compounds.

The target in assay [2] is T2, D2L receptor (Homo sapiens, UniProt P14416).
T2 construct: expressed in transfected cells; host or cells: HEK cells
The assay can be described thus: Inhibition constants for binding to cloned D2L receptor expressed in HEK cells, [3H]spiperone. The procedure:
as §1

For assay [3], the target named is T3, D2 receptor (Homo sapiens, UniProt P14416).
T3 construct: expressed in transfected cells
The assay can be described thus: Agonist potency by [3H]thymidine incorporation (mitogenesis), D2. The class given is cell-based. Conditions: [3H]thymidine incorporation; for Emax: >80% full agonist, read-out: D2 % Maxm Stim. Here is the method:
(§2) Potential as domaminergenic agonists was assayed by ^3H-thymidine incorporation by standard techniques.
(§3) The EC50 values thus indicate intrinsic activities or functional activities of these compounds. The value of % maximum stimulation indicates whether a compound is a partial agonist or full agonist. Generally, a value greater than 80% is considered as a full agonist and anything less than 80% is considered as a partial agonist.

For assay [4], the target named is T4, 5HT2A receptor (Homo sapiens, UniProt P28223).
T4 construct: expressed in transfected cells
Briefly: Binding affinity at cloned human 5HT2A receptor, [3H]Ketanserin.

Assay [5] has as its target T1, D3 receptor. The assay can be described thus: Agonist potency by [3H]thymidine incorporation (mitogenesis), D3. It is filed as cell-based. The arrangement: expressed in transfected cells; host or cells: CHOp-D3 cells. The following applies: [3H]thymidine incorporation; for Emax: >80% full agonist, read-out: D3 % Maxm Stim. The procedure:
as §2, §3

Assay [6] has as its target T5, 5HT2C receptor (Homo sapiens, UniProt P28335).
T5 construct: expressed in transfected cells
T5 sequence (P28335 33-458): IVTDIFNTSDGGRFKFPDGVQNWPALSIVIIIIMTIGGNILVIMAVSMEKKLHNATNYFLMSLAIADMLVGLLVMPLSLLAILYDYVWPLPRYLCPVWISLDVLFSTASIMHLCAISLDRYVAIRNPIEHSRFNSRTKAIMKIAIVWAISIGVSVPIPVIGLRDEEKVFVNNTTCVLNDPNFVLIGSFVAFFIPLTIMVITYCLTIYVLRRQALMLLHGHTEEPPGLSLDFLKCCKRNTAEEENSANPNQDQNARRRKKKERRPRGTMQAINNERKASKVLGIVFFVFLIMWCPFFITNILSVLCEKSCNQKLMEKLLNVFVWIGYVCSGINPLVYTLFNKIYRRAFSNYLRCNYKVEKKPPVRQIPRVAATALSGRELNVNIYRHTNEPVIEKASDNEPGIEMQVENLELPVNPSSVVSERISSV
Briefly: Binding affinity at cloned human 5HT2C receptor, [3H]Mesulergine.

In assay [7] the target is T6, D1 receptor (Homo sapiens, UniProt P21728).
T6 construct: expressed in transfected cells; host or cells: LHD1 cells
Briefly: Binding affinity at cloned human D1 receptor, [3H]SCH23390 (LHD1 cells). Here is the method:
LHD1 cells (human receptor) are grown and prepared as described for the HA7 cells as described hereafter. The final pellet is resuspended at 5 mg protein/80 ml in 50 mM Tris-HCl containing 120 mM of NaCl, 5 mM of KCl, 2 mM of CaCl2, and 1 mM of MgCl2, pH 7.4. To wells containing 100 μl of test drug or buffer and […] of [^3H]SCH 23390 (0.18 nM final conc.), is added 0.8 ml of cell homogenate (0.05 mg protein/well), and the plates are incubated at […] for 60 min. Nonspecific binding is determined with 1 μM of SCH 23390.

The target in assay [8] is T3, D2 receptor. The assay can be described thus: Binding affinity at cloned human D2 receptor, [3H]YM-09151-2 (CHOp-D2 cells). Here is the method:
(§4) CHOp-cells (human receptors) are grown to confluence in a minimum essential medium (α MEM) containing 10% fetal calf serum, 0.05% pen-strep, and 600 μg/ml of G418. The cells are scraped from the 100 by 20 mm plates and centrifuged at 500. g for 5 min. The pellet is homogenized by polytron in 50 mM Tris-HCl, pH 7.7, and centrifuged at 27,000·G for 12 min. The pellet is resuspended in 50 mM Tris, D2 at 5 mg protein/ml, D3 at 1 mg protein/ml, and stored at −70° C. in 1-ml aliquots.
(§5) On the day of the experiment, CHOp-D2 or CHOp-D3 cells are thawed, resuspended in 50 mM Tris, and centrifuged at 27,000·G for 12 min. The pellet is then resuspended at 5 mg protein/80 ml (D2) and 1 mg protein/80 ml (D3) in 50 mM Tris containing 120 mM of NaCl, 5 mM of KCl, 1.5 mM of CaCl2, 4 mM of MgCl2, and 1 mM of EDTA, pH 7.4. […] Nonspecific binding is determined with 1 mM of chlorpromazine. The plates are incubated at 25° C. for 60 min before filtration and counted as usual. The filters are soaked in 0.1% PEI before filtering.

Assay [9] addresses T7, 5HT1A receptor (Homo sapiens, UniProt P08908).
T7 construct: expressed in transfected cells; host or cells: HA7 cells
T7 sequence (P08908 1-422): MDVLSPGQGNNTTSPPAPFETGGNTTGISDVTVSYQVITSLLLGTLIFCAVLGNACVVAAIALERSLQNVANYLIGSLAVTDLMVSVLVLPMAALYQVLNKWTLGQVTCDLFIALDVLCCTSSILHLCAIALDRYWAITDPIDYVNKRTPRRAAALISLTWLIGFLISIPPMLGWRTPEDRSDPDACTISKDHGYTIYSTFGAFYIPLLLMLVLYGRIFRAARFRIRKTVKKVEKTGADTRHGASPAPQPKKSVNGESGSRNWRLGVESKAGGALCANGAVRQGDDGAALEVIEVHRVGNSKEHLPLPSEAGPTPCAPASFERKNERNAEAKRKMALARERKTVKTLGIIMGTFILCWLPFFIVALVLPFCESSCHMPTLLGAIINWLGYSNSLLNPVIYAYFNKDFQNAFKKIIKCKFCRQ
Briefly: Binding affinity at cloned human 5HT1A receptor, [3H]8-OH-DPAT (HA7 cells). The procedure:
HA7 cells (human receptor) are grown to confluence in DMEM containing 10% fetal calf serum, 0.05% penicillin-streptomycin (pen-strep), and […] of G418. The cells are scraped from the 100 by 20 mm plates and centrifuged at 500·G for 5 min. The pellet is homogenized in 50 mM Tris-HCl, pH 7.7, with a polytron, centrifuged at 27,000·G and resuspended at 10 mg protein/ml in the same buffer. The homogenate is then stored at −70° C. in 1-ml aliquots.
The thawed cells are washed once and resuspended at 10 mg protein/80 ml in 25 mM Tris-HCl containing 100 μM of ascorbic acid and 10 mM of nialamide at pH 7.4. The assay is performed in triplicate in a 96-well plate. To 100 μl of [^3H]8-OH-DPAT (0.5 nM final conc), […] of test compound or buffer and 0.8 ml of cell homogenate (0.1 mg protein/well) is added to each well by a Tomtec Quadra 96. Nonspecific binding is defined using 1 μM dihydroergotamine. The plates are incubated at 25° C. for 60 min, then filtered. The incubation is terminated by rapid filtration through glass fiber filter paper on a Tomtec cell harvester. The filters are washed four times with ice-cold 50 mM Tris-HCl, pH 7.7, dried overnight, bagged with 10 ml scintillation cocktail before counting for 2 min. on a Wallac Betaplate 1205 liquid scintillation counter.

Assay [10] has as its target T1, D3 receptor. The assay can be described thus: Binding affinity at cloned human D3 receptor, [3H]YM-09151-2 (CHOp-D3 cells). The arrangement: expressed in transfected cells; host or cells: CHOp-D3 cells. Conditions: for Ki: cloned human D3; for D2/D3: ratio of Ki D2 to Ki D3, [3H]YM-09151-2 protocol of Table 4. Here is the method: as §4, §5
For assay [11], the target named is T1, D3 receptor. The assay can be described thus: Binding affinity at cloned human D3 receptor, [3H]Spiperone (Table 5). The following applies: for activity at the D3 receptor: Table 5; for Ki: cloned human D3, Table 5. More on the design: expressed in transfected cells; host or cells: CHOp-D3 cells.
In assay [12] the target is T3, D2 receptor. The assay can be described thus: Binding affinity at cloned human D2 receptor, [3H]Spiperone (Table 5). The following applies: for affinity for the D2 receptor: Table 5; for Ki: cloned human D2, Table 5.

The term Ki denotes the equilibrium dissociation constant of an inhibitor or competing ligand from its target. Read a low Ki as tighter binding. The term EC50 denotes the concentration needed to bring the measured effect to its halfway point. Low values mean a more potent agent, high ones a less potent agent.

The structures appear in SMILES notation.

T4 sequence (P28223 whole entry): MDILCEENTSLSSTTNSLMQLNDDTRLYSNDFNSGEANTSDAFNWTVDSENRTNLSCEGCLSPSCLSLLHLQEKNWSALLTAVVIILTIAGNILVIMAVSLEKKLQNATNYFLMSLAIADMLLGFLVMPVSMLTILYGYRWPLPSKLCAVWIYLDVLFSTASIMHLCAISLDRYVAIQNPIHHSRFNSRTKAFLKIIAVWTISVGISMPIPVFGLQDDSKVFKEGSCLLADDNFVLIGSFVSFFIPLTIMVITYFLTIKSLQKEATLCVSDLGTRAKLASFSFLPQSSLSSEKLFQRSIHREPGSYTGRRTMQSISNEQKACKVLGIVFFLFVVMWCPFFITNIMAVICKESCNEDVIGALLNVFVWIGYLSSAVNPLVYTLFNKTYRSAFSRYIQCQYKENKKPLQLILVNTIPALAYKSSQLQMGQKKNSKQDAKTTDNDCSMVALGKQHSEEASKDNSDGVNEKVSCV
T1 sequence (P35462 whole entry): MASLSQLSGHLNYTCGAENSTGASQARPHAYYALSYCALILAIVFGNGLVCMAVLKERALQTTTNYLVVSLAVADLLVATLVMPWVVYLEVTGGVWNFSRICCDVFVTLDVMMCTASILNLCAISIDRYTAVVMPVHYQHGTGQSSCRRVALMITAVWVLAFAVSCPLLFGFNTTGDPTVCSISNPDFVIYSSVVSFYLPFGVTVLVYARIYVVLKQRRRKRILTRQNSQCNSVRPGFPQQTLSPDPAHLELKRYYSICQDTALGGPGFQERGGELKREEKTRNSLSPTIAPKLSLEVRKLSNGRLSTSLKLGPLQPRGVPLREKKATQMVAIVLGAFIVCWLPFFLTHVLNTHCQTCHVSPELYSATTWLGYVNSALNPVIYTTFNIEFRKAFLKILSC
T6 sequence (P21728 whole entry): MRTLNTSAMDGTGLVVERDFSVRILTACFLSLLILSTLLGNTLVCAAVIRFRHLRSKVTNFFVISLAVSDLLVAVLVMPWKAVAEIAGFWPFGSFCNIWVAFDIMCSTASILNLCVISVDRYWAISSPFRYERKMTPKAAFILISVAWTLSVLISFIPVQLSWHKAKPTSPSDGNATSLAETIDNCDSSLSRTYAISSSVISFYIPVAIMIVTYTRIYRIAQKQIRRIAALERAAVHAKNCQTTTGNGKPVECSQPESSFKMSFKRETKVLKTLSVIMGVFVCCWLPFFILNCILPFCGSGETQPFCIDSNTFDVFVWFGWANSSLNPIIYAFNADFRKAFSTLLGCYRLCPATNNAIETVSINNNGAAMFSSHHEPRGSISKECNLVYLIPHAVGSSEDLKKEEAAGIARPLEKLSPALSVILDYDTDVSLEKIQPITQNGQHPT
T2 sequence (P14416 whole entry): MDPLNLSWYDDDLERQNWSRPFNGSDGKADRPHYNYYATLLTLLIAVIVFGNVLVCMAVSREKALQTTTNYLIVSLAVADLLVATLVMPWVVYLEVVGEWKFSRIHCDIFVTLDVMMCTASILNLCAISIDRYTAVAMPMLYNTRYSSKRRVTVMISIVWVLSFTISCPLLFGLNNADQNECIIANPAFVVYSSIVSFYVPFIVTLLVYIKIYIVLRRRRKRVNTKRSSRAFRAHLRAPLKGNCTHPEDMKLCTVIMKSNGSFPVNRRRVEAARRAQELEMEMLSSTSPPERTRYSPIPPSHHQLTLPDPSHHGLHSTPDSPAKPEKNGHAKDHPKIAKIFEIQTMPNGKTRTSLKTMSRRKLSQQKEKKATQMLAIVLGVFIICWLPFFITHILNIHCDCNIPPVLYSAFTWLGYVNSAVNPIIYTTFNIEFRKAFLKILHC
T3 sequence (P14416 whole entry): as above

On to `C#CCN(CCN1CCN(c2ccccc2)CC1)C1CCc2ccc(O)cc2C1` (centres unmarked) [Compound 12a, 7-Hydroxy-1-2-[N-propargyl-(N-(4-phenylpiperazin-1-yl)-ethyl)amino]tetralin], for which the inhibition constant Ki turned out to be 14.2 ± 1.7 nM in [1]; 245 ± 26 nM in assay [2]; 161 nM in assay [4]; 2690 nM in assay [6]; 663 nM in [7]; 65.5 nM in [8]. For the same compound, the Ki in assay [9] was 27.6 nM; in assay [10], 23.5 nM. In addition, the EC50 in [3] turned out to be 6.18 ± 0.18 nM; in [5] it was 1.25 ± 0.08 nM. For the same compound, the Emax was 87.2 ± 2.16% in assay [3] and 94.5 ± 6.17% in assay [5]. Besides, the D2/D3 in [10] was 2.8.

Regarding `CCCN(CCN1CCN(c2ccccc2)CC1)C1CCc2ccc(O)cc2C1` (centres unmarked) [Compound 15a, 7-Hydroxy-2-[N-propyl-(N-(4-phenylpiperazin-1-yl)-ethyl)amino]tetralin], the Ki was 1.75 ± 0.34 nM in assay [1]; 213 ± 26 nM in assay [2]; 1540 nM in assay [4]; greater than 10000 nM in [6]; greater than 10000 nM in assay [7]; 75.5 nM in [8]. Moreover, the inhibition constant (Ki) in [9] was 21.4 nM; in assay [10] it was 3.2 nM. For the same compound, the values for the EC50 in assay [3] and in assay [5] were 1.59 ± 0.06 nM and 0.97 ± 0.02 nM, respectively. Besides, the values for the Emax in assay [3] and in assay [5] were 105 ± 11.3% and 84.6 ± 10.8%, respectively. In addition, the “selectivity for D3 relative to the standard 7-OH-DPAT” value in [10] (protocol used in Table 4) is listed as “more than two fold”. In addition, the D2/D3 in assay [10] was 25.

As for `CCCN(CCCCN1CCN(c2cccc(Cl)c2Cl)CC1)C1CCc2ccc(O)cc2C1` (centres unmarked) [Compound 19a, 7-Hydroxy-2-[N-propyl-(N-(4-(2,3-dichlorophenyl)-piperazin-1-yl)-butyl)amino]tetralin], the inhibition constant Ki in [1] came to 2.26 ± 0.5 nM; in assay [2], 8.78 ± 0.81 nM; in assay [4] it was 356 nM; in assay [6], 639 nM; in assay [7], 4060 nM; in assay [8] it was 31.5 nM. In addition, the inhibition constant Ki is 40.6 nM in assay [9] and 2.66 nM in assay [10]. In addition, the EC50 in assay [3] came to 8.31 ± 0.69 nM; in assay [5], 6.49 ± 2.46 nM. Further, the Emax is 80.1 ± 8.15% in assay [3] and 85.7 ± 1.19% in assay [5]. Further, the D2/D3 in [10] was determined as 15.

For the compound `C#CCN(CCCCN1CCN(c2cccc(Cl)c2Cl)CC1)C1CCc2ccc(O)cc2C1` (centres unmarked) [Compound 19b, 7-Hydroxy-2-[N-propargyl-(N-(4-(2,3-dichlorophenyl)-piperazin-1-yl)-butyl)amino]tetralin], the Ki in assay [1] turned out to be 3.59 ± 0.58 nM; in [2], 7.37 ± 0.27 nM; in [4] it was 160 nM; in assay [6], 264 nM; in [7] it was 1720 nM; in [8], 28.1 nM. Further, the figures for the inhibition constant (Ki) in assay [9] and in [10] were 64.4 nM and 12.7 nM, respectively. For the same compound, the EC50 in assay [3] is 11.8 ± 1.84 nM; in [5], 3.08 ± 1.09 nM. Moreover, the values for the Emax in [3] and in [5] were 85.7 ± 9.15% and 90.3 ± 15.5%, respectively. The D2/D3 in [10] was 2.3.

Consider `CCCN(CCc1ccc(N)cc1)CCN1CCN(c2ccccc2)CC1` [Compound 29a, 4-(2-{[2-(4-Phenyl-piperazin-1-yl)-ethyl]-propyl-amino}-ethyl)-phenylamine], for which, in assay [11], the “activity at the D3 receptor” value is “some activity” and the Ki is 1150 nM. In assay [12], the “affinity for the D2 receptor” value is on record as “exceptionally low affinity” and the affinity, expressed as Ki, was 25600 nM.

For `CCCN(CCc1cccc(N)c1)CCN1CCN(c2ccccc2)CC1` [Compound 29b, 3-(2-{[2-(4-Phenyl-piperazin-1-yl)-ethyl]-propyl-amino}-ethyl)-phenylamine], in assay [11], the “activity at the D3 receptor” value was “some activity” and the Ki worked out at 1480 nM. Moreover, in [12], the “affinity for the D2 receptor” value is recorded as “exceptionally low affinity” and the affinity corresponds to a Ki of 23500 nM.

Consider `CCCN(CCc1ccc(NS(=O)(=O)c2ccc(Cl)cc2)cc1)CCN1CCN(c2ccccc2)CC1` [Compound 30a, 4-Chloro-N-[4-(2-{[2-(4-phenyl-piperazin-1-yl)-ethyl]-propyl-amino}-ethyl)-phenyl]-benzenesulfonamide], for which the values for the Ki in [11] and in assay [12] were 5.98 ± 0.7 nM and 702 ± 22 nM, respectively.

On to `CCCN(CCc1cccc(NS(=O)(=O)c2ccc(Cl)cc2)c1)CCN1CCN(c2ccccc2)CC1` [Compound 30b, 4-Chloro-N-[3-(2-{[2-(4-phenyl-piperazin-1-yl)-ethyl]-propyl-amino}-ethyl)-phenyl]-benzenesulfonamide], for which the Ki in assay [11] came out at 36.8 ± 5.4 nM; in assay [12], 552 ± 31 nM.
